Test results published in ChEMBL document CHEMBL1201862, “PubChem BioAssay data set” (2004).
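Following 48 hours of exposure in 96-well plates, responses at five concentrations were used to interpolate endpoints linearly. Here, GI50 denotes the concentration required for 50% inhibition of growth.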 Activity calls are given as the source filed them. Rule as the data show it: active = GI50 up to about 1.1 µM and inactive = higher.

Experiments:
Assay in all cases: DTP human tumour cell line panel, 48 h
RXF 393 = system: RXF 393
HOP-62 = system: HOP-62
OVCAR-8 = system: OVCAR-8
OVCAR-5 = system: OVCAR-5
SK-OV-3 = system: SK-OV-3
HCT-15 = system: HCT-15
CAKI-1 = system: CAKI-1
MDA-MB-435 = system: MDA-MB-435
IGROV-1 = system: IGROV-1
SK-MEL-28 = system: SK-MEL-28
U-251 = system: U-251
Malme-3M = system: Malme-3M
Hs-578T = system: Hs-578T
SF-268 = system: SF-268
CCRF-CEM = system: CCRF-CEM
TK-10 = system: TK-10
ACHN = system: ACHN
M14 = system: M14
RPMI-8226 = system: RPMI-8226
SF-295 = system: SF-295

Row | Structure (SMILES) | GI50 (RXF 393) | GI50 (HOP-62) | GI50 (OVCAR-8) | GI50 (OVCAR-5) | GI50 (SK-OV-3) | GI50 (HCT-15) | GI50 (CAKI-1) | GI50 (MDA-MB-435) | GI50 (IGROV-1) | GI50 (SK-MEL-28) | GI50 (U-251) | GI50 (Malme-3M) | GI50 (Hs-578T) | GI50 (SF-268) | GI50 (CCRF-CEM) | GI50 (TK-10) | GI50 (ACHN) | GI50 (M14) | GI50 (RPMI-8226) | GI50 (SF-295)
1 | NC1=NCC(CN2CCCC2)O1 (configuration not stated) | > 100 µM (inactive) | > 100 µM (inactive) | > 100 µM (inactive) | > 100 µM (inactive) | > 100 µM (inactive) | > 100 µM | > 100 µM (inactive) | > 100 µM (inactive) | > 100 µM (inactive) | > 100 µM (inactive) | > 100 µM (inactive) | > 100 µM (inactive) | > 100 µM (inactive) | > 100 µM (inactive) | > 100 µM (inactive) | > 100 µM (inactive) | > 100 µM (inactive) | > 100 µM (inactive) | > 100 µM (inactive) | > 100 µM (inactive)
2 | O=c1c2ccccc2sc2c(CO)ccc(NCCN3CCCCC3)c12 | 2.39 µM (inactive) | 3.24 µM (inactive) | 3.56 µM (inactive) | 6.35 µM (inactive) | 3.91 µM (inactive) | 3.56 µM | 3.45 µM (inactive) | 2.64 µM (inactive) | 3.93 µM (inactive) | 2.9 µM (inactive) | 3.79 µM (inactive) | 2.24 µM (inactive) | 4.38 µM (inactive) | 3.32 µM (inactive) | 1.15 µM (inactive) | 3.48 µM (inactive) | 2.39 µM (inactive) | 1.93 µM (inactive) | 1.91 µM (inactive) | 3.61 µM (inactive)
3 | CC1SCc2nc3ccccc3n21 (configuration not stated) | > 100 µM (inactive) | > 100 µM (inactive) | > 100 µM (inactive) | > 100 µM (inactive) | > 100 µM (inactive) | > 100 µM | > 100 µM (inactive) | > 100 µM (inactive) | > 100 µM (inactive) | > 100 µM (inactive) | > 100 µM (inactive) | > 100 µM (inactive) | > 100 µM (inactive) | > 100 µM (inactive) | > 100 µM (inactive) | > 100 µM (inactive) | > 100 µM (inactive) | > 100 µM (inactive) | > 100 µM (inactive) | > 100 µM (inactive)
4 | COc1ccc(/C(CC2OC(=O)c3ccccc32)=N\NC(N)=O)cc1 (configuration not stated) | > 100 µM (inactive) | > 100 µM (inactive) | > 100 µM (inactive) | > 100 µM (inactive) | > 100 µM (inactive) | > 100 µM | > 100 µM (inactive) | > 100 µM (inactive) | > 100 µM (inactive) | > 100 µM (inactive) | > 100 µM (inactive) | > 100 µM (inactive) | > 100 µM (inactive) | > 100 µM (inactive) | > 100 µM (inactive) | > 100 µM (inactive) | > 100 µM (inactive) | > 100 µM (inactive) | > 100 µM (inactive) | > 100 µM (inactive)
5 | Nc1cccc(OCC2CCCN3CCCCC23)c1 (configuration not stated) | 20.5 µM (inactive) | 16.2 µM (inactive) | 18.7 µM (inactive) | 17.7 µM (inactive) | 72.9 µM (inactive) | 17.5 µM | 17.6 µM (inactive) | 22.5 µM (inactive) | – | 19.1 µM (inactive) | 24.4 µM (inactive) | 23.5 µM (inactive) | 16.7 µM (inactive) | 20.1 µM (inactive) | 15.2 µM (inactive) | 17.4 µM (inactive) | 18 µM (inactive) | 20 µM (inactive) | 15.2 µM (inactive) | 17.8 µM (inactive)
6 | CCOC(=O)CCC(C(=O)OCC)n1nnc2cc(Nc3c(C)[n+]([O-])c4ccc(Cl)cc4[n+]3[O-])ccc21 (configuration not stated) | 57.9 µM (inactive) | > 100 µM (inactive) | > 100 µM (inactive) | > 100 µM (inactive) | > 100 µM (inactive) | 53.7 µM | 57 µM (inactive) | > 100 µM (inactive) | > 100 µM (inactive) | – | 80 µM (inactive) | > 100 µM (inactive) | > 100 µM (inactive) | 34.8 µM (inactive) | 39.4 µM (inactive) | > 100 µM (inactive) | 60.7 µM (inactive) | > 100 µM (inactive) | 47.2 µM (inactive) | 78 µM (inactive)
7 | Cc1ccc(O)c(Cc2nc3ccccc3nc2-c2cccc(Br)c2)c1 | > 100 µM (inactive) | > 100 µM (inactive) | > 100 µM (inactive) | > 100 µM (inactive) | > 100 µM (inactive) | 22.3 µM | 85.3 µM (inactive) | > 100 µM (inactive) | 46 µM (inactive) | – | > 100 µM (inactive) | > 100 µM (inactive) | 12.5 µM (inactive) | > 100 µM (inactive) | 28.4 µM (inactive) | > 100 µM (inactive) | 55.1 µM (inactive) | > 100 µM (inactive) | 47.3 µM (inactive) | > 100 µM (inactive)
